Key:
Assay type in all cases: cell-based, mouse
[1] = tested on: M2-10B4 marrow stromal cells; assay: Alkaline phosphatase (ALP) activity assay on whole cell extracts of M2-10B4 marrow stromal cells; conditions: for induction of alkaline phosphatase activity: 10 μM oxysterol, 3 days, osteogenic medium
Description: (§1) Cells: M2-10B4 mouse marrow stromal cell line obtained from American Type Culture Collection (ATCC, Rockville, Md., U.S.A.) was derived from bone marrow stromal cells of a (C57BL/6J x C3H/HeJ) Fl mouse, and support human and murine myelopoiesis in long-term cultures (as per ATCC) and have the ability to differentiate into osteoblastic and adipocytic cells. Unless specified, these cells were cultured in RPMI 1640 containing 10% heat-inactivated FBS, and supplemented with 1 mM sodium pyruvate, 100 U/ml penicillin, and 100 U/ml streptomycin (all from Irvine Scientific).
Cells were always treated at 90% confluence. […]
Next, a combination of 22R and 20S oxysterols (RS, 2.5 μM each) were added in the presence or absence of SC as indicated. After 3 days, ALP activity was measured as described earlier. […] (B) M2 cells were treated as described in (A) and after 10 days matrix mineralization in cultures was quantified by a ^45Ca incorporation assay as described earlier. […] (C) M2 cells were pretreated with 20 μM SC for 4 hours, followed by the addition of RS in the presence or absence of SC as described above. After 8 days, total RNA was isolated and analyzed for osteocalcin (Osc) and […] expression by Northern blotting as previously described. Data from densitometric analysis of the Northern blot is shown in (D) as the average of duplicate samples, normalized to 18S rRNA. (E) M2 cells at confluence were pretreated for 2 hours with control vehicle (C), or PLA2 inhibitors ACA (25 μM) and AACOCF3 (AAC, 20 μM), in osteogenic medium. Next, a combination of 22R and 20S oxysterols (RS, 2.5 μM) was added in the presence or absence of the inhibitors as indicated. After 3 days, ALP activity was measured as previously described. […] (F) M2 cells were treated as described in (E). After 10 days, matrix mineralization in cultures was quantified using a ^45Ca incorporation assay as previously described. […]

[2] = tested on: M2-10B4 marrow stromal cells; assay: Matrix mineralization (45Ca incorporation assay, von Kossa staining) in M2-10B4 marrow stromal cells; conditions: for induction of mineralization by individual oxysterols: 0.5 to less than 10 μM, as many as 14 days (data not shown)
Description: as §1
(§2) Von Kossa and oil red O staining—Matrix mineralization in cell monolayers was detected by silver nitrate staining as previously described. Oil red O staining for detection of adipocytes was performed as previously described.
^45Ca incorporation assay—Matrix mineralization in cell monolayers was quantified using the ^45Ca incorporation assay as previously described.
After 14 days, mineralization was identified by a von Kossa staining, which appears black. FIG. 3C is a depiction of von Kossa staining of M2 cells exposed to various conditions.
After 14 days, matrix mineralization in cultures was quantified using a ^45Ca incorporation assay.
Next, a combination of 22R and 20S oxysterols (RS, 2.5 μM each) were added in the presence or absence of SC as indicated. After 3 days, ALP activity was measured as described earlier. […] (B) M2 cells were treated as described in (A) and after 10 days matrix mineralization in cultures was quantified by a ^45Ca incorporation assay as described earlier. […] (C) M2 cells were pretreated with 20 μM SC for 4 hours, followed by the addition of RS in the presence or absence of SC as described above. After 8 days, total RNA was isolated and analyzed for osteocalcin (Osc) and […] expression by Northern blotting as previously described. Data from densitometric analysis of the Northern blot is shown in (D) as the average of duplicate samples, normalized to 18S rRNA. (E) M2 cells at confluence were pretreated for 2 hours with control vehicle (C), or PLA2 inhibitors ACA (25 μM) and AACOCF3 (AAC, 20 μM), in osteogenic medium. Next, a combination of 22R and 20S oxysterols (RS, 2.5 μM) was added in the presence or absence of the inhibitors as indicated. After 3 days, ALP activity was measured as previously described. […] (F) M2 cells were treated as described in (E). After 10 days, matrix mineralization in cultures was quantified using a ^45Ca incorporation assay as previously described. Results from a representative of three experiments are shown, reported as the mean of quadruplicate determinations ±SD, normalized to protein concentration (p<0.01 for RS vs. RS+ACA and RS+AAC).
(A) M2 cells at confluence were pretreated for four hours with RPMI containing 1% FBS, followed by treatment with control vehicle or 5 μM 20S oxysterol for 1, 4, or 8 hours. Next total cell extracts were prepared and analyzed for levels of native or phosphorylated ERK (pERK) using specific antibodies as previously described. Data from a representative of four experiments are shown, each treatment shown in duplicate samples. (B) M2 cells at confluence were pretreated for 2 hours with control vehicle (C) or 20 μM PD98059 (PD) in osteogenic medium as previously described. Next, a combination of 22R and 20S oxysterols (RS, 5 μM each) were added to appropriate wells as indicated. After 10 days of incubation, matrix mineralization was quantified by the ^45Ca incorporation assay as previously described. […] (C) M2 cells at confluence were pretreated for 2 hours with 20 µM PD98059 (PD) in RPMI containing 5% FBS. Next, the cells were treated with control vehicle (C), 10 μM troglitazone (Tro), or 10 μM of 20S or 22S oxysterols, alone or in combination as indicated. After 10 days, adipocytes were visualized by oil Red O staining and quantified by light microscopy as previously described. […]

[3] = tested on: M2 cells; assay: Troglitazone-induced adipogenesis in M2 cells (oil Red O staining, adipocyte count); conditions: Tro 10 μM, oxysterol 10 μM, 10 days, alone or in combination
Description: as §2
Test 1: M2 cells at 90% confluence were treated with vehicle (C), PPAR-γ activator, troglitazone 10 μM (Tro), alone or in combination with 10 μM oxysterols 20S-, 22R-, or 25S-hydroxycholesterol. After 8 days, adipocytes were identified by oil Red 0 staining and quantified by counting under a phase contrast microscope. FIG. 6A is a bar graph depicting the effect of oxysterols on reducing adipogenesis of MSC.
Test 2: (A) M2 cells at confluence were treated in RPMI containing 10% FBS with control vehicle or 10 μM troglitazone (Tro) in the absence or presence of 10 μM 20S or 22S-hydroxycholesterol. After 10 days, adipocytes were visualized by oil Red O staining and quantified by light microscopy, shown in (B). […] (C) M2 cells were treated at confluence with 10 μM Tro, alone or in combination with 10 μM 20S oxysterol. After 10 days, total RNA was isolated and analyzed for lipoprotein lipase (LPL), adipocyte P2 gene (aP2) or 18S rRNA expression by Northern blotting as described (Ref). Data from densitometric analysis of the Northern blot is shown in (D) as the average of duplicate samples, normalized to 18S rRNA.

| Compound | induction of alkaline phosphatase activity [1] | induction of mineralization by individual oxysterols [2] | effect on troglitazone-induced adipogenesis [3] | alkaline phosphatase (ALP) activity ([1]; doses of 5-15 μM) | mineralization ([2]; doses of 5-15 μM) |
| --- | --- | --- | --- | --- | --- |
| CC(C)CC[C@H](O)[C@@H](C)[C@H]1CC[C@H]2[C@@H]3CC=C4C[C@@H](O)CC[C@]4(C)[C@H]3CC[C@]12C [22S-hydroxycholesterol] | induced | unable to induce | inhibited adipogenesis |  |  |
| CC(C)CC[C@@H](O)[C@@H](C)[C@H]1CC[C@H]2[C@@H]3CC=C4C[C@@H](O)CC[C@]4(C)[C@H]3CC[C@]12C [22R-hydroxycholesterol] | induced | unable to induce | inhibited adipogenesis |  |  |
| CC(C)CCC[C@](C)(O)[C@H]1CC[C@H]2[C@@H]3CC=C4C[C@@H](O)CC[C@]4(C)[C@H]3CC[C@@]21C [20S-hydroxycholesterol] | induced | unable to induce | inhibited adipogenesis | induction | induction |

— patent publication US20090220562A1, “Osteogenic and anti-adipogenic oxysterols” (priority 2005, published 2009)
